{
  "source": "paper PMC10234496",
  "about": "(Organic letters, 2022)",
  "key": {"E. cloacae": {"system": "E. cloacae", "assay": "MIC against E. cloacae", "type": "cell-based", "details": "Gram-negative; measured in duplicate"}, "MDR S. aureus strains": {"system": "MDR S. aureus strains", "assay": "MIC against MDR S. aureus strains", "type": "cell-based", "details": "Figure 3, Table S9"}, "P. aeruginosa": {"system": "P. aeruginosa", "assay": "MIC against P. aeruginosa", "type": "cell-based, Pseudomonas aeruginosa", "details": "Gram-negative; measured in duplicate"}, "A. baumannii": {"system": "A. baumannii", "assay": "MIC against A. baumannii", "type": "cell-based, Acinetobacter baumannii", "details": "Gram-negative; measured in duplicate"}, "E. coli": {"system": "E. coli", "assay": "MIC against E. coli", "type": "cell-based, Escherichia coli", "details": "Gram-negative; measured in duplicate"}, "K. pneumoniae": {"system": "K. pneumoniae", "assay": "MIC against K. pneumoniae", "type": "cell-based, Klebsiella pneumoniae", "details": "Gram-negative; measured in duplicate"}, "E. faecium": {"system": "E. faecium", "assay": "MIC against E. faecium", "type": "cell-based, Enterococcus faecium", "details": "Gram-positive; measured in duplicate"}, "S. aureus": {"system": "S. aureus", "assay": "MIC against S. aureus", "type": "cell-based, Staphylococcus aureus", "details": "Gram-positive; measured in duplicate"}, "VRE clinical isolates": {"system": "VRE clinical isolates", "assay": "MIC against VRE clinical isolates", "type": "cell-based, Vancomycin-resistant Enterococcus", "details": "Figure 3, Table S9"}},
  "data": [
    {"substance": "Tridecaptin A", "values": [
      {"measurement": "MIC E. cloacae", "setting": "E. cloacae", "result": 2, "unit": "µg/mL"},
      {"measurement": "MIC against MDR S. aureus strains", "setting": "MDR S. aureus strains", "result": 128, "unit": "µg/mL"},
      {"measurement": "MIC P. aeruginosa", "setting": "P. aeruginosa", "result": 64, "unit": "µg/mL"},
      {"measurement": "MIC A. baumannii", "setting": "A. baumannii", "result": 4, "unit": "µg/mL"},
      {"measurement": "MIC E. coli", "setting": "E. coli", "result": 1, "unit": "µg/mL"},
      {"measurement": "MIC K. pneumoniae", "setting": "K. pneumoniae", "result": 1, "unit": "µg/mL"},
      {"measurement": "MIC E. faecium", "setting": "E. faecium", "result": 64, "unit": "µg/mL"},
      {"measurement": "MIC S. aureus", "setting": "S. aureus", "result": 128, "unit": "µg/mL"},
      {"measurement": "MIC against VRE clinical isolates", "setting": "VRE clinical isolates", "result": 128, "unit": "µg/mL"}
    ]},
    {"substance": "Paenibacterin", "values": [
      {"measurement": "MIC E. cloacae", "setting": "E. cloacae", "result": 4, "unit": "µg/mL"},
      {"measurement": "MIC P. aeruginosa", "setting": "P. aeruginosa", "result": 8, "unit": "µg/mL"},
      {"measurement": "MIC A. baumannii", "setting": "A. baumannii", "result": 8, "unit": "µg/mL"},
      {"measurement": "MIC E. coli", "setting": "E. coli", "result": 4, "unit": "µg/mL"},
      {"measurement": "MIC K. pneumoniae", "setting": "K. pneumoniae", "result": 8, "unit": "µg/mL"},
      {"measurement": "MIC E. faecium", "setting": "E. faecium", "result": 8, "unit": "µg/mL"},
      {"measurement": "MIC S. aureus", "setting": "S. aureus", "result": 16, "unit": "µg/mL"}
    ]},
    {"substance": "Laterocidine", "values": [
      {"measurement": "MIC E. cloacae", "setting": "E. cloacae", "result": 1, "unit": "µg/mL"},
      {"measurement": "MIC P. aeruginosa", "setting": "P. aeruginosa", "result": 2, "unit": "µg/mL"},
      {"measurement": "MIC A. baumannii", "setting": "A. baumannii", "result": 0.5, "unit": "µg/mL"},
      {"measurement": "MIC E. coli", "setting": "E. coli", "result": 0.5, "unit": "µg/mL"},
      {"measurement": "MIC K. pneumoniae", "setting": "K. pneumoniae", "result": 2, "unit": "µg/mL"},
      {"measurement": "MIC E. faecium", "setting": "E. faecium", "result": ">128", "unit": "µg/mL"},
      {"measurement": "MIC S. aureus", "setting": "S. aureus", "result": ">128", "unit": "µg/mL"}
    ]}
  ]
}
